From US6350768B1 (Aventis Pharma S.A., priority 1999, dated 2002)

System: purified rat motoneurons
Conditions: BDNF 1 ng/ml
Protocol: The effect of the combination has been studied on the cellular death of purified rat motoneurons which is induced by sera from patients suffering from amyotrophic lateral sclerosis.
Purified motoneurons prepared from the spinal cord of rat embryos at 14 days of gestation are cultured in the presence of optimum concentrations of recombinant “brain-derived neurotrophic factor” (BDNF), one of the principal neurotrophic factors for the survival of the motoneurons. […] After a further 2 hours, dilutions of dialyzed sera from patients suffering from ALS are added. On the next day, the number of surviving motoneurons is evaluated by direct counting under a phase contrast microscope.
The stock solution of gabapentin is prepared directly by dissolving 17.1 mg of gabapentin in 1 ml of double distilled water.
Rat embryos at 14 days of gestation (Charles River, France) are recovered after sacrificing the mother, under CO2 anesthesia, by pulling the neck. These embryos are placed in phosphate buffer (“phosphate-buffered saline”, PBS) free of calcium and magnesium (Life Technologies).
Unless otherwise stated, the composition of the media used is identical to that indicated in these references. Spinal cords from rat embryos at 14 days of gestation are dissected in sterile PBS and the ventral halves of each cord containing the motoneurons are subdissected. […]

## NCC1(CC(=O)O)CCCCC1 [Gabapentin]
Mean of 8 measurements, 4 wells, ALS serum 0.1%, Gabapentin 10^−5 M alone
  Number of motoneurons, Mean (± SEM): 5.0
Medium treated with gabapentin alone, ALS serum
  survival of the motoneurons: 8%
